Laboratory results: US11793815B2, “Oxindoles and methods of use thereof” (ALIGOS THERAPEUTICS, INC., priority 2020, dated 2023)

Biological target: T1, human thyroid receptor beta ligand-binding domain (LBD) (Homo sapiens, UniProt P10828)
T1 construct: Thyroid receptor beta LBD was added to the plate at a final concentration of 1 nM; purchased Invitrogen
T1 sequence (P10828 217-461 limits assumed): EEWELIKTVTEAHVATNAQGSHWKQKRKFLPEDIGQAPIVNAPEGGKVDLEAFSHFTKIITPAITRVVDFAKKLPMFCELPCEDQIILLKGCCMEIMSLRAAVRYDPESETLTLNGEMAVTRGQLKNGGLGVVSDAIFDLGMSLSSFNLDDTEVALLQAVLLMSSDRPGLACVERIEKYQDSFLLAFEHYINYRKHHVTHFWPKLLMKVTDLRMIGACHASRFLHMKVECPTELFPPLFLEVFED
Test: THR Biochemical Assay (Assay 1): TR-FRET thyroid receptor beta coactivator assay
Settings: GST-tagged thyroid receptor beta LBD 1 nM, fluorescein SRC2-2 coactivator peptide 200 nM, 1 hr at rt, TR-FRET ratio 520:495; read-out: Assay 1 (EC50, THR-beta agonist)
From the text: THR Biochemical Assay (Assay 1)
The TR-FRET thyroid receptor beta coactivator assay was used with slight, optimized modifications of the manufacturer's protocol (Invitrogen). The assay uses a terbium-labeled anti-GST antibody, a glutathione-S-transferase (GST) tagged human thyroid receptor, beta or alpha, ligand-binding domain (LBD), and a fluorescein labeled SRC2-2 coactivator peptide. The antibody interacts with the LBD, where the agonist also binds, resulting in increased affinity for the SRC2-2 coactivator peptide causing energy transfer […] the acceptor fluorophore and a FRET emission shift from 495 to 520 nm. The energy transfer was detected as an increase in the fluorescence emission of the fluorescein acceptor, and a decrease in the fluorescence emission of the terbium donor. The assay was performed in a 384-well black plate in a final volume of 20 μL. Serial dilution of various test agonists was performed in DMSO (1% final DMSO concentration) and added to the test plate. Thyroid receptor beta LBD was added to the plate at a final concentration of 1 nM, followed by the mixture of the fluorescein labeled SRC2-2 coactivator peptide, and the terbium-labeled anti-GST antibody at final concentrations of 200 nM and 2 nM respectively. The assay was incubated for 1 hr at rt protected from light. The TR-FRET was then measured on a Victor multilabel reader (Perkin Elmer) using an excitation wavelength of 340 nm with emission filters of 495 nm and 520 nm. The assay was quantified by expressing a ratio (520:495) of the intensities, and the resulting activation curves; EC50 values were generated using a sigmoidal dose response (variable slope) equation in GraphPad™ Prism 8.0.

Row | EC50 [nM] | Structure (SMILES)
1 | < 50 | O=C(Nc1cc(Cl)c(Oc2ccc3c(c2F)C2(CC2)C(=O)N3)c(Cl)c1)c1noc(=O)[nH]1 [Compound 40, N-(3,5-dichloro-4-((4′-fluoro-2′-oxospiro[cyclopropane-1,3′-indolin]-5′-yl)oxy)phenyl)-5-oxo-4,5-dihydro-1,2,4-oxadiazole-3-carboxamide]
2 | < 50 | Nc1nn(-c2cc(Cl)c(Oc3ccc4c(c3F)C3(CC3)C(=O)N4)c(Cl)c2)c(=O)[nH]c1=O [Compound 41, 6-amino-2-(3,5-dichloro-4-((4′-fluoro-2′-oxospiro[cyclopropane-1,3′-indolin]-5′-yl)oxy)phenyl)-1,2,4-triazine-3,5(2H,4H)-dione]
3 | < 50 | Cn1nc(-c2cc(Cl)c(Oc3ccc4c(c3F)C3(CC3)C(=O)N4)c(Cl)c2)c(=O)[nH]c1=O [Compound 42, 6-(3,5-dichloro-4-((4′-fluoro-2′-oxospiro[cyclopropane-1,3′-indolin]-5′-yl)oxy)phenyl)-2-methyl-1,2,4-triazine-3,5(2H,4H)-dione]
4 | < 50 | Cn1nc(-c2cc(Cl)c(Oc3ccc4c(c3Cl)C3(CC3)C(=O)N4)c(Cl)c2)c(=O)[nH]c1=O [Compound 43, 6-(3,5-dichloro-4-((4′-chloro-2′-oxospiro[cyclopropane-1,3′-indolin]-5′-yl)oxy)phenyl)-2-methyl-1,2,4-triazine-3,5(2H,4H)-dione]
5 | < 50 | O=C(Nc1cc(Cl)c(Oc2ccc3c(c2)C2(CC2)C(=O)N3)c(C(F)(F)F)c1)c1noc(=O)[nH]1 [Compound 44, N-(3-chloro-4-((2′-oxospiro[cyclopropane-1,3′-indolin]-5′-yl)oxy)-5-(trifluoromethyl)phenyl)-5-oxo-4,5-dihydro-1,2,4-oxadiazole-3-carboxamide]
6 | 250 to 1000 | Nc1nn(-c2cc(Cl)c(Oc3cnc4c(c3)C3(CC3)C(=O)N4)c(Cl)c2)c(=O)[nH]c1=O [Compound 45, 6-amino-2-(3,5-dichloro-4-((2′-oxo-1′,2′-dihydrospiro[cyclopropane-1,3′-pyrrolo[2,3-b]pyridin]-5′-yl)oxy)phenyl)-1,2,4-triazine-3,5(2H,4H)-dione]
